From PubChem BioAssay (NCI)
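Step 1: Grow cells in 96-well plates. Step 2: Expose to compound for 48 hours at 5 concentrations. Step 3: Interpolate endpoints linearly; if unreached, use highest concentration. Definition used: TGI = concentration required for complete inhibition of growth.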

Assays:
Test in all cases: NCI-60 cell line screen, 48 h
A549 NSCLC = test system: A549 NSCLC
RXF 393 renal = test system: RXF 393 renal
U251 CNS = test system: U251 CNS
OVCAR-3 ovarian = test system: OVCAR-3 ovarian
CCRF-CEM leukemia = test system: CCRF-CEM leukemia
SNB-75 CNS = test system: SNB-75 CNS
786-0 renal = test system: 786-0 renal
SNB-19 CNS = test system: SNB-19 CNS
SR leukemia = test system: SR leukemia
SK-MEL-2 melanoma = test system: SK-MEL-2 melanoma

SMILES	TGI (A549 NSCLC) [µM]	TGI (RXF 393 renal) [µM]	TGI (U251 CNS) [µM]	TGI (OVCAR-3 ovarian) [µM]	TGI (CCRF-CEM leukemia) [µM]	TGI (SNB-75 CNS) [µM]	TGI (786-0 renal) [µM]	TGI (SNB-19 CNS) [µM]	TGI (SR leukemia) [µM]	TGI (SK-MEL-2 melanoma) [µM]
C[N+](C)(N)Cc1nc(-c2ccc(Cl)cc2)no1	> 100	> 100	> 100	> 100	> 100	> 100	> 100	> 100	> 100	> 100
COc1ccc(OC)c([N+](=O)[O-])c1-c1nc2sc(Cl)cn2c1/C=N/N=C(N)N	58.3	48.3	> 100	40.4	> 100	24.9	> 100	43.4	34.7	38.8
Cc1cnoc1/N=C1\C=C(Nc2oncc2C)C(=O)c2ccccc21	> 100	> 100	> 100	> 100	> 100	> 100	> 100	> 100	> 100	> 100
N#C/C=C(/NC(=O)Nc1ccccc1)N1CCCC1	> 61.3	> 100	> 53.8	> 100	> 100	> 21.4	> 100	> 45.6	> 100	> 52.6
Cc1cc2c3c(c1)S(=O)(=O)c1cc(Cl)ccc1N3CCC2	> 100	> 100		> 100	> 100	> 100	> 100	> 100	> 100	> 100
CCN(CC)C1=Nc2ccccc2-n2ccnc2C1	> 100	> 100	> 100	> 100	> 100	> 100	> 100	> 100	> 100	> 100
CN1CCN(c2n[nH]c(=O)c3c2nnn3Cc2ccccc2)CC1	> 100	> 100	> 100	> 100	> 100	> 100	> 100	> 100	> 100	> 100
CCCCCCc1cc2cc(C(=O)Nc3nc(C45CC6CC(CC(C6)C4)C5)cs3)c(=O)oc2cc1O	54.4	30.6	28.6	39.4	50.5	32.4	25.6	60.1	26.4	31.4
Cc1cccc(-c2cc(=O)c3cccnc3[nH]2)c1	> 100	> 100	> 100	> 100	> 100	> 100	> 100	> 100	> 100	
CSC(=Nc1ccccc1)c1c(C)[nH]n(-c2ccccc2)c1=O	> 100	> 100	> 100	> 100	> 100	> 100	> 100	> 100	> 100	> 100
COc1cc(OC)c(-n2[nH]c(=O)n(C)c2=O)c(OC)c1	> 100	> 100	> 100	> 100	> 100	> 100	> 100	> 100	> 100	> 100
Fc1ccc(/C=C2\COCC3=C2NC(=S)NC3c2ccc(F)cc2)cc1 (configuration not stated)		30.4	40.8	32.6	45.7	57.6	34.4	47.7	45	28.6
CCCSc1ccc2[nH]c(N3C(=O)/C(=C/c4ccc(O)c(OC)c4)N=C3c3ccccc3)cc2c1		> 100		> 100	93.8	> 100	> 100	> 100	> 100	2.73
CCOC(=O)N1CCC2(CC1)C[C@](Sc1ccccc1)(C(C)=O)[C@H](C)O2	> 100	> 100	> 100	> 100	> 100	> 100	> 100	> 100	> 100	> 100
O=C1O/C(=C(\Br)c2ccc([N+](=O)[O-])cc2)c2ccccc21	> 100	> 100	> 100	> 100	62.7	> 100	> 100	> 100	> 71.4	> 100
CN(C(=O)Cc1cc(Cl)c(Cl)cc1NC(=O)CCCN)[C@H]1CCCC[C@@H]1N1CCCC1	83.1	48.7	35.3	> 100			36.2	45.4	> 100	40.5
C[C@]12CCC(=O)C=C1CC[C@@H]1[C@@H]2CC[C@]2(C)C(=O)/C(=C/c3ccc([N+](=O)[O-])cc3)C[C@@H]12	> 100	73.5		> 100	> 100	> 100	> 100	> 100	> 100	> 100
O=C(CSc1nc2ccccc2c(=O)n1-c1ccccc1)N=Nc1c(O)[nH]c2ccc(Br)cc12	10.9	7.68	4.26	20	> 100	11.5	4.33	27.2	> 26.6	47.1
O=C1C(NS(=O)(=O)c2ccccc2)=C(n2ccnc2)C(=O)c2ccccc21	> 100	> 100	> 100	> 100	> 100	> 100	> 100	> 100	> 100	> 100
CC(=O)N1N=C(c2ccccc2)NC(=O)C1c1cc(C)c(O)c(C)c1 (configuration not stated)	66.1	31.2	35	36.7	> 100	37.5	31.7	50.9	> 100	72.2
O=c1[nH]nc(-c2ccc3ccccc3c2)[nH]1	> 100	> 100	> 100	> 100	> 100	> 100	> 100	> 100	> 100	> 100
COc1cc2ncnc(Nc3cccc(Br)c3)c2cc1OC	> 69.1	53	> 46.7	45.4	> 89.8	29.3	4.8	> 77.4	> 31.6	12.9
